Measured values taken from patent US20040087572A1, “Method for inhibiting cataracts” (priority 2003, published 2004).

Legend:
[1] = test system: chloride channels in the lens; conditions: organ culture, clinically relevant concentrations; cited from earlier work
[2] = test system: postmenopausal women (cataracts); assay: Phase 3 placebo-controlled clinical trial: cataract treatment-emergent signs and symptoms (TESS) events; assay type: in vivo, human
Method: A phase 3, multicenter, double-blind, placebo-controlled, randomized clinical trial was conducted. The trial included 7705 women (mean age 67 years old), who were an average of 19 years postmenopausal. These patients were randomly assigned to the following treatment protocol: raloxifene hydrochloride at 60 mg per day via oral administration, raloxifene at 120 mg per day, or placebo. The study was conducted for a period of 48 months. As a portion of the patient's overall evaluation, various clinical tests and parameters were measured at periodic intervals.
The following tables provide summaries of select cataract treatment-emergent signs and symptoms (“TESS”) events for various patient populations at the thirty-six and the forty-eight month mark of the clinical trial.

endometrium / uterus = conditions: clinical studies in women; cited from earlier work
[3] = All Randomized Patients, 36-Month Data, Rlx60 (60 mg per day oral), N = 2557
[4] = All Randomized Patients, 36-Month Data, Rlx120 (120 mg per day), N = 2572
[5] = All Randomized Patients, 48-Month Data, Rlx60 (60 mg per day oral), N = 2557
[6] = All Randomized Patients, 48-Month Data, Rlx120 (120 mg per day), N = 2572
[7] = Patients Not Reporting a Cataract-Related Current Condition at Baseline, 36-Month Data, Rlx60 (60 mg per day oral), N = 2394
[8] = Patients Not Reporting a Cataract-Related Current Condition at Baseline, 36-Month Data, Rlx120 (120 mg per day), N = 2418
[9] = Patients Not Reporting a Cataract-Related Current Condition at Baseline, 48-Month Data, Rlx60 (60 mg per day oral), N = 2385
[10] = Patients Not Reporting a Cataract-Related Current Condition at Baseline, 48-Month Data, Rlx120 (120 mg per day), N = 2408
[11] = Patients Reporting a Cataract-Related Current Condition at Baseline, 36-Month Data, Rlx60 (60 mg per day oral), N = 163
[12] = Patients Reporting a Cataract-Related Current Condition at Baseline, 36-Month Data, Rlx120 (120 mg per day), N = 154
[13] = Patients Reporting a Cataract-Related Current Condition at Baseline, 48-Month Data, Rlx60 (60 mg per day oral), N = 172
[14] = Patients Reporting a Cataract-Related Current Condition at Baseline, 48-Month Data, Rlx120 (120 mg per day), N = 164

CC/C(=C(\c1ccccc1)c1ccc(OCCN(C)C)cc1)c1ccccc1 [tamoxifen]
Effect on chloride channels [1]: blocked chloride channels

Cl.O=C(c1ccc(OCCN2CCCCC2)cc1)c1c(-c2ccc(O)cc2)sc2cc(O)ccc12 [Rlx, [2-(4-hydroxyphenyl)-6-hydroxybenzo[b]thie-3-yl][4-[2-(1-piperidenyl)ethoxy]phenyl]methanone hydrochloride]
Dose dependence of the trend in cataract events ([2]; 120 mg per day vs 60 mg per day vs placebo): dose dependent
Risk of cataracts (adverse events relating to cataracts) as compared to placebo ([2]; 7705 postmenopausal women, 60 or 120 mg per day, 48 months): trend toward decreasing risk of cataracts
"Cataract Specified" event, number of patients [2, 3]: 92
"Cataract Specified" event, percent of patients [2, 3]: 3.6%
Any Cataract-related event, number of patients [2, 3]: 105
Any Cataract-related event, percent of patients [2, 3]: 4.1%
Surgery for cataract, number of patients [2, 3]: 60
Surgery for cataract, percent of patients [2, 3]: 2.3%
"Cataract Specified" event, number of patients [2, 4]: 82
"Cataract Specified" event, percent of patients [2, 4]: 3.2%
Any Cataract-related event, number of patients [2, 4]: 101
Any Cataract-related event, percent of patients [2, 4]: 3.9%
Surgery for cataract, number of patients [2, 4]: 60
Surgery for cataract, percent of patients [2, 4]: 2.3%
"Cataract Specified" event, number of patients [2, 5]: 135
"Cataract Specified" event, percent of patients [2, 5]: 5.3%
Any Cataract-related event, number of patients [2, 5]: 151
Any Cataract-related event, percent of patients [2, 5]: 5.9%
Surgery for cataract, number of patients [2, 5]: 85
Surgery for cataract, percent of patients [2, 5]: 3.3%
"Cataract Specified" event, number of patients [2, 6]: 122
"Cataract Specified" event, percent of patients [2, 6]: 4.7%
Any Cataract-related event, number of patients [2, 6]: 140
Any Cataract-related event, percent of patients [2, 6]: 5.4%
Surgery for cataract, number of patients [2, 6]: 78
Surgery for cataract, percent of patients [2, 6]: 3.0%
Any Cataract-related event, number of patients [2, 7]: 80
Any Cataract-related event, percent of patients [2, 7]: 3.3%
Any Cataract-related event, number of patients [2, 8]: 83
Any Cataract-related event, percent of patients [2, 8]: 3.4%
Any Cataract-related event, number of patients [2, 9]: 120
Any Cataract-related event, percent of patients [2, 9]: 5.0%
Any Cataract-related event, number of patients [2, 10]: 115
Any Cataract-related event, percent of patients [2, 10]: 4.8%
Any Cataract-related event, number of patients [2, 11]: 25
Any Cataract-related event, percent of patients [2, 11]: 15.3%
Any Cataract-related event, number of patients [2, 12]: 18
Any Cataract-related event, percent of patients [2, 12]: 11.7%
Any Cataract-related event, number of patients [2, 13]: 31
Any Cataract-related event, percent of patients [2, 13]: 18.0%
Any Cataract-related event, number of patients [2, 14]: 25
Any Cataract-related event, percent of patients [2, 14]: 15.2%
Endometrial cancer (endometrium / uterus): has not been associated with endometrial cancer
Endometrial stimulation (endometrium / uterus): not associated with endometrial stimulation
